Data reported in patent US8148347B2, “Inhibition of interaction of PSD93 and PSDS95 with nNOS and NMDA receptors” (The Johns Hopkins University, priority 2000, dated 2012).

Columns and labels:
[1] = system: PSD-95/SAP90; test: immunoblot of PSD-95/SAP90 expression in spinal cord of OND-treated rats; assay type: in vivo, rat
From the text: Antisense ONDs, widely used as research tools and even as drugs in clinical trials, inhibit protein expression by the mechanisms of (1) steric blockade of ribosomal subunit attachment to mRNA at the 5′ cap site; (2) interference with proper mRNA splicing through antisense binding to splice donor or splice acceptor sites; (3) Rnase-H-mediated degradation of hybridized mRNA.^18 To further examine whether the action of antisense OND for PSD-95/SAP90 above was specifically due to selective decrease or lack of PSD-95/SAP90 but not other proteins in the spinal cord, we detected PSD-95/SAP90, NMDA receptor subunits 2A/2B (NR2A/2B), neuronal nitric oxide synthase (nNOS) and SAP-102 in homogenates from crude lumbar enlargement segments in the normal, saline-treated (control) and OND-treated rats. […]
Animal preparation and behavioral testing. […] Nociception was evaluated by the radiant heat tail-flick test. The doses and time point of maximal effect of NMDA used in the present study were determined based on a previous study.^24 The tail-flick apparatus (Model 33B Tail Flick Analgesy Meter, IITC Life Science, Woodland Hills, Calif., USA) generated a beam of radiant heat that was focused on the underside of the tail, 5 cm from the tip. […] Nociception was assessed by the time required to induce tail-flick after applying radiant heat to the skin of the tail. […]

[2] = system: rats; test: rat neuropathic pain model, unilateral L5 spinal nerve ligation, hind paw withdrawal; assay type: in vivo; details: 50 μg/10 μl intrathecal every 24 h for 4 days
Description: The effect of the deficiency of PSD-95/SAP90 on mechanical and thermal hyperalgesia in a rat neuropathic pain model was observed. The antisense oligonucleotide (OND) specifically against PSD-95/SAP90 was employed to reduce the expression of PSD-95/SAP90 in spinal cord. The rats were injected intrathecally with saline (10 μl), antisense OND (50 μg/10 μl) or sense OND (50 μg/10 μl) every 24 h for 4 days. The unilateral L5 spinal nerve was ligated. Hind paw withdrawal response to mechanical or heat stimuli was conducted 1 day prior to the surgery and at 3, 5, 7 and 9 days postoperatively. In the saline-treated group, mechanical and thermal hyperalgesia developed within 3 days and persisted for 9 days or longer. […] PSD-95/SAP90 is likely involved in the molecular mechanism of the production of hyperalgesia in neuropathic pain triggered via NMDA receptor activation.

[3] = system: c-fos; test: c-fos immunohistochemistry in lumbar spinal cord after formalin; assay type: in vivo, rat
Description: All of the experiments were carried out with the approval of the Animal Care Committee at the Johns Hopkins University. Thirty-eight male Sprague-Dawley rats (250-300 g, Hilltop Laboratory Animals, Scottsdale, Pa., USA) were implanted with an intrathecal PE-10 catheter at the rostral level of the spinal cord lumbar enlargement according to the method described by Yaksh and Rudy. After 4 to 7 days of recovery, they were intrathecally injected with one of the following agents every 24 hours for 4 consecutive days: saline (10 μl, n=6), PSD-95 antisense oligodeoxynucleotide (ODN) (12.5 μg/10 μl, n=6; 25 μg/10 μl, n=6; 50 μg/10 μl, n=6), sense ODN (50 μg/10 μl, n=5) or missense ODN (50 μg/10 μl, n=9). On the fifth day, formalin (4%, 100 μl) was injected into one of the hindpaws. The number of flinches and shakes of the injected paw was assessed for 1 hour. The observational session was divided into phasic (0-10 min) and tonic (10-60 min) periods. Rats were sacrificed two hours after formalin injection and their lumbar spinal cords were harvested for c-fos immunohistochemistry.

Substance | PSD-95/SAP90 expression ([1]; spinal cord, after intrathecal treatment (FIG. 1Ab)) | onset of the mechanical hyperalgesia [2] | onset of the thermal hyperalgesia [2] | decrease of the number of Fos-like immunoreactive neurons per section ([3]; 50 μg intrathecal) [%] | changes in the number of Fos-like immunoreactive neurons vs saline-treated group ([3]; 12.5 and 25 μg) | PSD-95/SAP90 protein in the postsynaptic density (PSD) fraction of the spinal cord ([1]; FIGS. 1Aa and b)
5′-TGTGATCTCCTCATACTC-3′ (DNA, backbone and methylation of C not given here; listed as Rattus rattus) [antisense oligonucletide corresponding to the PDZ domain nucleotides 241 to 258 of rat PSD-95/SAP90 mRNA] | < 15 % of control | significant delay | significant delay | 48 | failed to produce significant changes | –
5′-AAGCCCTTGTTCCCATTT-3′ (DNA, backbone and methylation of C not given here; listed as Rattus rattus) [MS, missense OND control, reference compound] | – | – | – | – | – | enriched
